The record followed here is patent EP4643856A1, “CARBAZOLE DERIVATIVES USED AS NEUROPROTECTANTS AND IN THE TREATMENT OF DISORDERS WITH REDUCED NAD METABOLISM” (Centre National de la Recherche Scientifique, priority 2024, dated 2025).

“Also recorded” adds a separate entry of the source.

For data set [1], the system named is HeLa cells. The data set is described as follows: FK866-induced cytotoxicity, viability assay (prestoblue assay). The conditions noted are these: 3.5 nM FK866 in the presence of 6 µM compound, 72 hours. Type of data set: cell-based. The protocol:
(§1) This clearly indicates an activation of the pathways leading to NADH production. • Figure 3 represents the effect of compounds I-a, I-f, I-m, I-n, I-q and the comparative example on the cytotoxicity mediated by NAMPT inhibitor FK866. HeLa cells were seeded in microplates and incubated with 3.5 nM FK866 without (black) or in the presence of 6 µM of I-a and different analogues (grey), as indicated, for 72 hours. A viability assay (prestoblue assay) was then conducted. […] Behavioral assessments were performed on 5-week-old male Sprague-Dawley rats before (basal values) and at days 4, 7, 11 and 14 after the beginning of the drug injections (Compound I-a 50 mg/kg, paclitaxel (PTX) 4 mg/kg, Compound I-a 50 mg/kg + PTX 4 mg/kg). Control animals (Vehicle) received vehicle injections. The results are presented by mean ± standard deviation (n = 6 per group). Tactile nociceptive thresholds were assessed using an electronic von Frey test (J. Ferrier, F. Marchand, D. Balayssac, Assessment of mechanical allodynia in rats using the electronic von frey test, BIO-Protoc., 6 (2016), 10.21769/BioProtoc.1933). Rats were placed individually in plastic compartments on an elevated wire floor and left for habituation for 15 min before each experiment. […] The maximum force applied (expressed in grams) to induce paw withdrawal was recorded automatically.
The compound FK866 is known to be a potent selective inhibitor of the NAMPT enzyme. Administration of FK866 in cultured cells results in depletion of intracellular NAD levels and subsequent cell death. The effect of compound I-a and other compounds of the series on FK866-induced cytotoxicity in HeLa cells was assayed.
HeLa cells were seeded in microplates and incubated with 3.5 nM FK866 without (black) or in the presence of 6 µM of I-a and different analogues (grey), as indicated, for 72 hours. A viability assay (prestoblue assay) was then conducted.

Data set [2] concerns HeLa cells. The data set is described as follows: Kinetics of NADH autofluorescence (endogenous NADH production) by confocal microscopy. Type of data set: cell-based. The note with it: I-a (5 µM) or I-s (0.5 µM), 25-minute analysis, in comparison with controls.
The target of data set [3] is NAMPT (Homo sapiens, UniProt P43490). Kind of data set: NAMPT activation in vitro, biochemical assay.
Data set [4] has as its system rat model of paclitaxel-induced neuropathy. Kind of data set: Rat model of paclitaxel-induced neuropathy, electronic von Frey test. The format is in vivo. The note with it: days 4, 7, 11 and 14. The protocol:
as §1

NAMPT, sequence (P43490 whole entry, species assumed): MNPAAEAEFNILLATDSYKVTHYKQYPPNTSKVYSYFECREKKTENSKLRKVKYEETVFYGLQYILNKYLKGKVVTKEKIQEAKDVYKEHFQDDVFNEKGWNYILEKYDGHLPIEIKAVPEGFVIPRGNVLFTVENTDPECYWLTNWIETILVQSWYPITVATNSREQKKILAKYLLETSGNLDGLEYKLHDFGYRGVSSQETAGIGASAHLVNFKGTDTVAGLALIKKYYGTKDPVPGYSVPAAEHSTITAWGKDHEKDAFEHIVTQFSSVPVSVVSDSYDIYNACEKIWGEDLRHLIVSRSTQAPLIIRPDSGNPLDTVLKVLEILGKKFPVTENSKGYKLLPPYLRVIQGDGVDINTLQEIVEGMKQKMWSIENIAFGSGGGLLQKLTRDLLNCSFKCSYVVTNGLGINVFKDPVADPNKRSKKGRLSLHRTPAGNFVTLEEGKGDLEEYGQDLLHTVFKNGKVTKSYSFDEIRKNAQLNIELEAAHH

For the compound `COc1cccc(NCC(F)Cn2c3ccc(Cl)cc3c3c(C)c(-n4cccc4)cc(C)c32)c1` (centres unmarked) [Comparative example, N-[3-(6-chloro-1,4-dimethyl-3-pyrrol-1-yl-carbazol-9-yl)-2-fluoro-propyl]-3-methoxy-aniline, reference compound], the “effect on FK866-induced cell death” value in data set [1] is “does not reduce FK866-induced cell death”. `Cc1cc(-n2cccc2)c(C)c2c1[nH]c1ccc(Cl)cc12` [I-a, 6-chloro-1,4-dimethyl-3-pyrrol-1-yl-9H-carbazole]: the “NADH production (NADH autofluorescence)” value in data set [2] is recorded as “dose-dependent increase in NADH production”. Also, the “effect on FK866-induced cell death” value in data set [1] is “significantly reduced cell death”. Also, the NAMPT activation entry in data set [3] is reported as “activates NAMPT in vitro”. The “tactile sensitivity (tactile nociceptive thresholds, von Frey)” value in data set [4] (Compound I-a 50 mg/kg + PTX 4 mg/kg, force in grams, n = 6 per group) was “prevents the hypersensitivity induced by PTX”. For `Cc1cc(-n2cccc2)c(C)c2c1[nH]c1ccc(Br)cc12` [I-f], in data set [1], the “effect on FK866-induced cell death” value was “can relieve the cytotoxicity of the NAMPT inhibitor FK866; also recorded: reduced cell death”. On the same count and under the same terms, the same measure for `Cc1cc(-n2cccc2)c(C)c2c1[nH]c1ccc(O)cc12` [I-m]: “no detectable protective effect”; for `CCOC(=O)Oc1ccc2[nH]c3c(C)cc(-n4cccc4)c(C)c3c2c1` [I-n]: “significantly reduced cell death”; for `CCc1cccc2c1[nH]c1c(C)cc(-n3cccc3)c(C)c12` [I-q]: “significantly reduced cell death”. As for `Cc1cc(-n2ccc(CO)c2)c(C)c2c1[nH]c1ccc(Cl)cc12` [I-s], in data set [2], the “NADH production (NADH autofluorescence)” value is reported as “dose-dependent increase in NADH production”.

Turning to `CC(=O)O[C@H]1C(=O)[C@@]2(C)[C@H]([C@H](OC(=O)c3ccccc3)[C@]3(O)C[C@H](OC(=O)[C@H](O)[C@@H](NC(=O)c4ccccc4)c4ccccc4)C(C)=C1C3(C)C)[C@]1(OC(C)=O)CO[C@@H]1C[C@@H]2O` [PTX, paclitaxel, reference compound], the “tactile sensitivity (tactile nociceptive thresholds, von Frey)” value in data set [4] (PTX 4 mg/kg alone, compared with basal value at day 0) is “progressively induce a tactile hypersensitivity; also recorded: developed progressively tactile hypersensitivity”.
